pIC50: −log10 of the molar value. Where a name gives a salt, the structure may show the parent alone.

In this assay the target is T1, Met kinase (Homo sapiens, UniProt P08581).
T1 construct: 6His (N); purchased Upstate 14-526; host or cells: Sf21 insect cells (S. frugiperda), baculovirus
T1 sequence (P08581 25-1390): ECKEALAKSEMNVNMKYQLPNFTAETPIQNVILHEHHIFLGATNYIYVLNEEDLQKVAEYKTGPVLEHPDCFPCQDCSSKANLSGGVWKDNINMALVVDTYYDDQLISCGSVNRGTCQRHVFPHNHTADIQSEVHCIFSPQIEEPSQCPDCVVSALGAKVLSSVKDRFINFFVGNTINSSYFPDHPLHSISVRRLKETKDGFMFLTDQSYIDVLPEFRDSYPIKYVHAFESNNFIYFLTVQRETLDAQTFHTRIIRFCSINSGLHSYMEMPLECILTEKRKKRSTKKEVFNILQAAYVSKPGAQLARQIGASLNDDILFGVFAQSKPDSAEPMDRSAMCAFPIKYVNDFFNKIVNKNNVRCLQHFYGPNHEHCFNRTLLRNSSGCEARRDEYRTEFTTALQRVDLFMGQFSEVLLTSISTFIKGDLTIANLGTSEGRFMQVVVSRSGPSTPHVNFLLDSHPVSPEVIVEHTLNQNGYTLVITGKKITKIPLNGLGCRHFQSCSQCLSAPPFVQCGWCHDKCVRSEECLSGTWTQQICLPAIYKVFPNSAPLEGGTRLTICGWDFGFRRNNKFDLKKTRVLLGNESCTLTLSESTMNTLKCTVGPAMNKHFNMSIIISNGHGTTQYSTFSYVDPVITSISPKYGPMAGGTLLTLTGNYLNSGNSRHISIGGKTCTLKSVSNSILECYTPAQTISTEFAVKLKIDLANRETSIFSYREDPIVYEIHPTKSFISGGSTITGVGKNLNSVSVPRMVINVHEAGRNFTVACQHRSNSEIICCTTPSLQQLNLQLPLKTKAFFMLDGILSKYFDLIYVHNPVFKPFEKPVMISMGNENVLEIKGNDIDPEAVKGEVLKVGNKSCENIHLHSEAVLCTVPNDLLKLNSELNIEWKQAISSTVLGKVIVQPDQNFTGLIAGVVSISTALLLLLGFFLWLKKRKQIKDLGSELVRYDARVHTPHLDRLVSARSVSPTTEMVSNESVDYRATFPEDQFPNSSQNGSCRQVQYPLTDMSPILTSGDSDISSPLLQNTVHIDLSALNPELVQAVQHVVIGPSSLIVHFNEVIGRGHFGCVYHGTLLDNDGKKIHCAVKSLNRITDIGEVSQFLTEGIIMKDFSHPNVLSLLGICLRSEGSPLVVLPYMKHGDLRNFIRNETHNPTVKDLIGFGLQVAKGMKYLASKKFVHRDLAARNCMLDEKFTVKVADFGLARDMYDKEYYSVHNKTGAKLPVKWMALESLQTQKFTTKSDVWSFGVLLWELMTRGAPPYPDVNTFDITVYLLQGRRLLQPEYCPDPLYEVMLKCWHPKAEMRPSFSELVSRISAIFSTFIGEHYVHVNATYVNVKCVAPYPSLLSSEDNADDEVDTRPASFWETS
The assay is described as follows: Met kinase inhibition (enzyme assay), flashplate method. The assay is classed as biochemical. Conditions: 33P-ATP, substrate pAGLT, 3 hrs at room temperature. The text has this:
According to the manufacturer's data (Met, active, upstate, catalogue no. 14-526), Met kinase is expressed for the purposes of protein production in insect cells (Sf21; S. frugiperda) and subsequent affinity-chromatographic purification as “N-terminal 6His-tagged” recombinant human protein in a baculovirus expression vector.
The test plates used are 96-well Flashplate® microtitre plates from Perkin Elmer (Cat. No. SMP200). The components of the kinase reaction described below are pipetted into the assay plate. The Met kinase and the substrate poly Ala-Glu-Lys-Tyr, (pAGLT, 6:2:5:1), are incubated for 3 hrs at room temperature with radioactively labelled ^33P-ATP in the presence and absence of test substances in a total volume of 100 μl. The reaction is terminated using 150 μl of a 60 mM EDTA solution. After incubation for a further 30 min at room temperature, the supernatants are filtered off with suction, and the wells are washed three times with 200 μl of 0.9% NaCl solution each time. The measurement of the bound radioactivity is carried out by means of a scintillation measuring instrument (Topcount NXT, Perkin-Elmer).
The full value used is the inhibitor-free kinase reaction. This should be approximately in the range 6000-9000 cpm. The pharmacological zero value used is staurosporin in a final concentration of 0.1 mM. The inhibitory values (IC50) are determined using the RS1_MTS program.
30 μl of assay buffer 10 μl of substance to be tested in assay buffer with 10% of DMSO 10 μl of ATP (final concentration 1 μM cold, 0.35 μCi of ^33P-ATP) 50 μl of Met kinase/substrate mixture in assay buffer; • (10 ng of enzyme/well, 50 ng of pAGLT/well)
Assay Buffer: • 50 mM HEPES • 3 mM magnesium chloride • 3 μM sodium orthovanadate • 3 mM manganese(II) chloride • 1 mM dithiothreitol (DTT) • pH=7.5 (to be set using sodium hydroxide)
Stop Solution: • 60 mM Titriplex III (EDTA) • ^33P-ATP: Perkin-Elmer; • Met kinase: Upstate, Cat. No. 14-526, Stock 1 μg/10 μl; spec. activity 954 U/mg; • Poly-Ala-Glu-Lys-Tyr, 6:2:5:1: Sigma Cat. No. P1152
`CN1CCN(CCCOC(=O)Nc2cccc(Cn3nc(-c4cc(F)cc(F)c4)ccc3=S)c2)CC1` [Compound A1, 3-(4-methylpiperazin-1-yl)propyl{3-[6-thioxo-3-(3,5-difluorophenyl)-6H-pyridazin-1-ylmethyl]phenyl}carbamate]: the pIC50 (as a rule, the negative decadic logarithm of the IC50, by convention in mol/L) is 6.00 to 8.00.

As to `Cc1cnc(-c2cccc(Cn3nc(-c4cc(F)cc(F)c4)ccc3=S)c2)s1` [Compound A3, 6-(3,5-difluorophenyl)-2-[3-(5-methylthiazol-2-yl)-benzyl]-2H-pyridazine-3-thione], the pIC50 was 6.00 to 8.00.

In turn, `Cc1cnc(-c2cccc(Cn3nc(-c4cccc(Cl)c4)ccc3=S)c2)s1` [Compound A4, 6-(3-chlorophenyl)-2-[3-(5-methylthiazol-2-yl)benzyl]-2H-pyridazine-3-thione] gave a pIC50 of 6.00 to 8.00.

As for `CN1CCN(CCCOC(=O)Nc2cccc(Cn3nc(-c4cc(F)c(F)c(F)c4)ccc3=S)c2)CC1` [Compound A2, 3-(4-methylpiperazin-1-yl)propyl{3-[6-thioxo-3-(3,4,5-trifluorophenyl)-6H-pyridazin-1-ylmethyl]phenyl}carbamate formate], the pIC50 is 6.00 to 8.00.

(Values after US20110136819A1, “6-THIOXOPYRIDAZINE DERIVATIVES” (MERCK PATENT GESELLSCHAFT MIT BESCHRÄNKTER HAFTUNG, priority 2007, published 2011).)
